From US10710994B2, “Oxadiazole transient receptor potential channel inhibitors” (Genentech, Inc., priority 2018, dated 2020) come the findings set out here.

The target of the assay is human TRPA1 channel (Homo sapiens (Human), UniProt O75762). The experiment in a line: hTRPA1 CHO Ca2+ FLIPR Tetra assay: block of cinnamaldehyde induced calcium influx. The assay is classed as cell-based. The following applies: CHO cells expressing TRPA1, Hill coefficient fixed to 1.5. On the procedure: CHO cells expressing TRPA1 were plated into 384-well plates, incubated overnight at 37° C., and loaded with BD calcium indicator dye for 1 hr at 37° C. followed by 15 minutes at room temperature. The assay buffer was Hank's Balanced Salt Solution (HBSS) containing 20 mM HEPES (pH readjusted to 7.4) along with 0.02% BSA.
Following dye load and plate cool down, compounds were added to the cells using FLIPR Tetra. Plates were then incubated with compounds for 10 minutes or 90 minutes at room temperature prior to adding agonist. Following this incubation, about an EC80 concentration of cinnamaldehyde […] was added to active the channels and block of cinnamaldehyde induced calcium influx was measured.
Fixing the Hill coefficient will generally reduce variability of the IC50 determination. The IC50 results were individually examined to make sure the MIN and MAX points were set correctly prior to validation of the results.

The mark [1] stands for this setting: read-out: hTRPA1 IC50 10 min, 10 minutes incubation with compound before cinnamaldehyde (about EC80).
[2] abbreviates: read-out: hTRPA1 IC50 90 min, 90 minutes incubation with compound before cinnamaldehyde (about EC80).

Read-outs that look alike come from different tables or passages of the source.

Chain of human TRPA1 channel (O75762 whole entry): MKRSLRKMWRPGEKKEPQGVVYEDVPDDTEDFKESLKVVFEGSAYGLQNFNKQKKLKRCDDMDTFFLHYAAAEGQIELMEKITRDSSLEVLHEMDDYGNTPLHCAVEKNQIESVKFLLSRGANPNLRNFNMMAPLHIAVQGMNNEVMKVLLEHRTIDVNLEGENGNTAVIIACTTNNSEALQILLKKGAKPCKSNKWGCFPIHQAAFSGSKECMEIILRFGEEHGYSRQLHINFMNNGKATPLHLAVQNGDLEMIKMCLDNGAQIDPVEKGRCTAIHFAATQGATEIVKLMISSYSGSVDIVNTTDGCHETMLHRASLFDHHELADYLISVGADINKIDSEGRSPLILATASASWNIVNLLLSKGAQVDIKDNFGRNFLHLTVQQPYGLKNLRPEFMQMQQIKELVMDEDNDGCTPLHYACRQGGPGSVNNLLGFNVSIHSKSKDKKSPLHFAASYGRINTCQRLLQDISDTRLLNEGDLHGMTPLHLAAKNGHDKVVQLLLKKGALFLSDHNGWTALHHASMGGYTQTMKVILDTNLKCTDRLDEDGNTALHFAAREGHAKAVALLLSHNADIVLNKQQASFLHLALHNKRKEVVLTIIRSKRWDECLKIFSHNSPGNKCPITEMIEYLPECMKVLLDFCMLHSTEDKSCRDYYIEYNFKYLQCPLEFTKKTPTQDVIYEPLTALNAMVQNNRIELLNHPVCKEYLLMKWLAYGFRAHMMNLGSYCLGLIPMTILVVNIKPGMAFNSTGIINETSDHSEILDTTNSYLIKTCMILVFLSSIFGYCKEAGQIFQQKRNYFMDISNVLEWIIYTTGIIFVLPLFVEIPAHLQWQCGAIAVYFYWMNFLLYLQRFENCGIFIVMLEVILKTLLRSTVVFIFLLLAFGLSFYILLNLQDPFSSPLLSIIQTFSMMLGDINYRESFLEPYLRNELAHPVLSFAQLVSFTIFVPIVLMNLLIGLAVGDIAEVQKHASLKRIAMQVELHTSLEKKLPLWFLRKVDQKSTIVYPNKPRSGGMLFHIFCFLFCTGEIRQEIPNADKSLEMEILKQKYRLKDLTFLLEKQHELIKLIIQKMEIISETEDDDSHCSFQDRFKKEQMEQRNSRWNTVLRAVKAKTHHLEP

With `Nc1ccc2c(=O)n(Cc3nc([C@@H]4CO[C@@H](c5ccc(Cl)cc5)C4)no3)cnc2n1` [Example 28, 7-amino-3-((3-((3R,5R)-5-(4-chlorophenyl)tetrahydro-furan-3-yl)-1,2,4-oxadiazol-5-yl)methyl)pyrido[2,3-d]pyrimidin-4(3H)-one], the IC50 (usually the midpoint of a concentration-inhibition curve) reads like this: under setting [1], 6.32 nM; under setting [2], 3.9 nM.
As to `Cn1cnc2ncn(Cc3nc([C@@H]4CO[C@@H](c5ccc(Br)cc5)C4)no3)c(=O)c21` [Example 29, 1-((3-((3R,5R)-5-(4-bromophenyl)tetra-hydrofuran-3-yl)-1,2,4-oxadiazol-5-yl)methyl)-7-methyl-1,7-dihydro-6H-purin-6-one], the IC50 worked out at 7.83 nM under setting [1] and 1.8 nM under setting [2].
With `Cn1cnc2ncn(Cc3nc([C@@H]4CO[C@@H](c5ccc(-c6ccccc6)cc5)C4)no3)c(=O)c21` [Example 30, 1-((3-((3R,5R)-5-[(1,1′-biphenyl]-4-yl)tetrahydrofuran-3-yl)-1,2,4-oxadiazol-5-yl)methyl)-7-methyl-1,7-dihydro-6H-purin-6-one], the IC50 was found to be 623 nM under setting [1] and 370 nM under setting [2].
As for `Cn1cnc2ncn(Cc3nc([C@@H]4CO[C@@H](c5ccc(Cl)c(Cl)c5)C4)no3)c(=O)c21` [Example 31, 1-((3-((3R,5R)-5-(3,4-dichlorophenyl)tetra-hydrofuran-3-yl)-1,2,4-oxadiazol-5-yl)methyl)-7-methyl-1,7-dihydro-6H-purin-6-one], the IC50 was 19.7 nM under setting [1] and 7.8 nM under setting [2].
On to `Cn1cnc2ncn(Cc3nc([C@@H]4CO[C@@H](c5ccc(Cl)c(F)c5)C4)no3)c(=O)c21` [Example 32, 1-((3-((3R,5R)-5-(4-chloro-3-fluorophenyl)tetrahydro-furan-3-yl)-1,2,4-oxadiazol-5-yl)methyl)-7-methyl-1,7-dihydro-6H-purin-6-one], for which the IC50 stood at 7.88 nM under setting [1] and 2 nM under setting [2].
The matching figures for `Cn1cnc2ncn(Cc3nc([C@@H]4CO[C@@H](c5ccc6ccccc6c5)C4)no3)c(=O)c21` [Example 33, 7-methyl-1-((3-((3R,5R)-5-(naphthalen-2-yl)tetrahydrofuran-3-yl)-1,2,4-oxadiazol-5-yl)methyl)-1,7-dihydro-6H-purin-6-one]: 4.09 nM and 2.4 nM.
For `Cn1cnc2ncn(Cc3nc([C@@H]4CO[C@@H](c5cc(F)cc(F)c5)C4)no3)c(=O)c21` [Example 34, 1-((3-((3R,5R)-5-(3,5-difluorophenyl)tetra-hydrofuran-3-yl)-1,2,4-oxadiazol-5-yl)methyl)-7-methyl-1,7-dihydro-6H-purin-6-one], the IC50 is 63.5 nM under setting [1] and 28 nM under setting [2].
In the same order, the values of `Cn1cnc2ncn(Cc3nc([C@@H]4CO[C@@H](c5ccc(F)c(Cl)c5)C4)no3)c(=O)c21` [Example 35, 1-((3-((3R,5R)-5-(3-chloro-4-fluorophenyl)tetrahydro-furan-3-yl)-1,2,4-oxadiazol-5-yl)methyl)-7-methyl-1,7-dihydro-6H-purin-6-one] are 16.4 nM and 3.6 nM.
`Cn1cnc2ncn(Cc3nc([C@@H]4CO[C@@H](c5ccc(C#N)cc5)C4)no3)c(=O)c21` [Example 37, 4-((2R,4R)-4-(5-((7-methyl-6-oxo-6,7-dihydro-1H-purin-1-yl)methyl)-1,2,4-oxadiazol-3-yl)tetrahydrofuran-2-yl)benzonitrile]: the IC50 reads like this: under setting [1], 108 nM; under setting [2], 52 nM.
The matching figures for `Cn1cnc2ncn(Cc3nc([C@@H]4CO[C@@H](c5ccc(C(F)(F)F)cc5)C4)no3)c(=O)c21` [Example 38, 7-methyl-1-((3-((3R,5R)-5-(4-(trifluoromethyl)phenyl)tetrahydrofuran-3-yl)-1,2,4-oxadiazol-5-yl)methyl)-1,7-dihydro-6H-purin-6-one]: 46.4 nM and 29 nM.
